For data set [1], the system named is wild-type HIV-IIIB strain. As to the kind of experiment: Antiviral analysis EGFP: anti-HIV activity in MT4 LTR-EGFP cells. Particulars: fluorescence of HIV-infected cells reduced by 50%, three days after infection. It is filed as cell-based, HIV-1. How it is done:
The compounds of the present invention were tested for anti-viral activity in a cellular assay, which was performed according to the following procedure.
The human T-cell line MT4 is engineered with Green Fluorescent Protein (GFP) and an HIV-specific promoter, HIV-1 long terminal repeat (LTR). This cell line is designated MT4 LTR-EGFP, and can be used for the in vitro evaluation of anti-HIV activity of investigational compounds. In HIV-1 infected cells, the Tat protein is produced which upregulates the LTR promotor and finally leads to stimulation of the GFP reporter production, allowing measuring ongoing HIV-infection fluorometrically.
(§1) Effective concentration values such as 50% effective concentration (EC50) can be determined and are usually expressed in μM. An EC50 value is defined as the concentration of test compound that reduces the fluorescence of HIV-infected cells by 50%. The 50% cytotoxic concentration (CC50 in μM) is defined as the concentration of test compound that reduces fluorescence of the mock-infected cells by 50%. The ratio of CC50 to EC50 is defined as the selectivity index (SI) and is an indication of the selectivity of the anti-HIV activity of the inhibitor. The ultimate monitoring of HIV-1 infection and cytotoxicity is done using a scanning microscope. Image analysis allows very sensitive detection of viral infection. Measurements are done before cell necrosis, which usually takes place about five days after infection, in particular measurements are performed three days after infection.
The following Table 5 lists EC50 values, expressed in micromole/liter, against wild-type HIV-IIIB strain, for a selected number of compounds of the invention.

The test system of a further data set is MT4 CMV-EGFP cells. Nature of the data set: Cytotoxicity in mock-infected MT4 CMV-EGFP cells. In kind it is cell-based, human. As to conditions: fluorescence reduced by 50%.
Excerpt: Analogously, MT4 cells are engineered with GFP and the constitutional cytomegalovirus (CMV) promotor. This cell line is designated MT4 CMV-EGFP, and can be used for the in vitro evaluation of cytotoxicity of investigational compounds. In this cell line, GFP levels are comparably to those of infected MT4 LTR-EGFP cells. Cytotoxic investigational compounds reduce GFP levels of mock-infected MT4 CMV-EGFP cells.
as §1

Results on 23 compounds are retold here after patent publication US20100087649A1, “QUINOLINONE DERIVATIVES” (priority 2006, published 2010).

As usually defined, the EC50 is the concentration at which the effect is half-maximal. Lower therefore signals a more potent agent. For orientation: CC50 means the concentration at which the toxic effect on the cells reaches its halfway point.

As for `N#Cc1c(NCC2CCNC2)c2ccccc2n(-c2ccc([N+](=O)[O-])cc2)c1=O` (centres unmarked) [compound 143], in data set [1], the midpoint of the response, the EC50, lay at 11.3 µM. Also, the 50% cytotoxic concentration (CC50) with MT4 CMV-EGFP cells is greater than 100 µM.

Regarding `N#Cc1cc2ccc(-c3cccc(O)c3)cc2n(-c2ccc([N+](=O)[O-])cc2)c1=O` [compound 32], in data set [1], the EC50 came out at 0.65 µM. In addition, the CC50 in the data set on MT4 CMV-EGFP cells is greater than 100 µM.

In the case of `N#Cc1cc2ccc(-c3ccc(C(N)=O)cc3)cc2n(-c2ccc([N+](=O)[O-])cc2)c1=O` [compound 35], the EC50 in data set [1] amounted to 1.71 µM. In the data set with MT4 CMV-EGFP cells, the CC50 was 22.6 µM.

`N#Cc1c(N)c2ccc(Cl)cc2n(-c2cccc([N+](=O)[O-])c2)c1=O` [compound 112] showed an EC50 in data set [1] of 5.63 µM. In addition, in the data set with MT4 CMV-EGFP cells, the CC50 is greater than 100 µM.

With `N#Cc1c(N)c2ccc(Cl)cc2n(-c2ccc(Cl)c(F)c2)c1=O` [compound 105], the EC50 in data set [1] is greater than 100 µM. The compound also registered a CC50 in the data set on MT4 CMV-EGFP cells greater than 100 µM.

As to `N#Cc1cc2ccc(-c3cncs3)cc2n(-c2ccc([N+](=O)[O-])cc2)c1=O` [compound 77], the EC50 in data set [1] is 0.34 µM. In the data set on MT4 CMV-EGFP cells, this compound came in with a CC50 of 25.8 µM.

`N#Cc1cc2ccc(OCCN3CCOCC3)cc2n(-c2ccc([N+](=O)[O-])cc2)c1=O` [compound 55]: the EC50 in data set [1] came to 13.5 µM. This compound registered a CC50 with MT4 CMV-EGFP cells greater than 32 µM.

`CC(=O)Nc1cccc(-c2ccc3cc(C#N)c(=O)n(-c4ccc([N+](=O)[O-])cc4)c3c2)c1` [compound 39] displayed an EC50 in data set [1] of 51.3 µM. Further, the CC50 in the data set with MT4 CMV-EGFP cells was greater than 100 µM.

In the case of `Cc1ccc(-n2c(=O)c(C#N)c(N)c3ccc(-c4cccs4)cc32)cc1C#N` [compound 126], the EC50 in data set [1] came out at 5.7 µM. In addition, the CC50 in the data set on MT4 CMV-EGFP cells was greater than 100 µM.

Take `N#Cc1c(N)c2ccccc2n(-c2ccc(Cl)nc2)c1=O` [compound 104]: in data set [1], the EC50 amounted to 19.5 µM. In addition, the 50% cytotoxic concentration (CC50) in the data set with MT4 CMV-EGFP cells is greater than 32 µM.

In data set [1], `Cc1ccc(-n2c(=O)c(C#N)c(N)c3ccc(-c4cc[nH]n4)cc32)cc1C#N` [compound 124] came in with an EC50 of 83.9 µM. The CC50 with MT4 CMV-EGFP cells was greater than 100 µM.

The compound `N#Cc1cc2ccccc2n(-c2ccc(Cl)nc2)c1=O` [compound 4] showed an EC50 in data set [1] greater than 32 µM. Besides, the CC50 in the data set with MT4 CMV-EGFP cells was greater than 32 µM.

In data set [1], `CCNCCCOc1ccc2cc(C#N)c(=O)n(-c3ccc([N+](=O)[O-])cc3)c2c1` [compound 65] displayed a half-maximal effective concentration (EC50) of 0.26 µM. In addition, the CC50 with MT4 CMV-EGFP cells was determined as 69 µM.

`N#Cc1cc2ccc(OCCN)cc2n(-c2ccc([N+](=O)[O-])cc2)c1=O` [compound 53] came in with an EC50 in data set [1] of 1.14 µM. The same compound registered a CC50 with MT4 CMV-EGFP cells greater than 100 µM.

As to `CNc1c(C#N)c(=O)n(-c2ccc([N+](=O)[O-])cc2)c2ncccc12` [compound 128], it took 13.9 µM to reach a half-maximal effect in data set [1] (EC50). In the data set with MT4 CMV-EGFP cells, this compound displayed a CC50 greater than 32 µM.

Regarding `N#Cc1cc2ccc(OCCN3CCCC3)cc2n(-c2ccc([N+](=O)[O-])cc2)c1=O` [compound 52], the EC50 in data set [1] stood at 2.45 µM. In the data set on MT4 CMV-EGFP cells, this compound had a CC50 greater than 32 µM.

As for `CC(=O)NCc1cccc(-c2ccc3cc(C#N)c(=O)n(-c4ccc([N+](=O)[O-])cc4)c3c2)c1` [compound 43], in data set [1], the EC50 stood at 0.93 µM. The compound also registered a CC50 in the data set on MT4 CMV-EGFP cells greater than 100 µM.

As for `CC(=O)NCCCOc1ccc2cc(C#N)c(=O)n(-c3ccc([N+](=O)[O-])cc3)c2c1` [compound 69], the EC50 in data set [1] is 10.2 µM. The compound further returned a CC50 with MT4 CMV-EGFP cells greater than 100 µM.

In the case of `N#Cc1c(N)c2ccc(-c3cscn3)cc2n(-c2ccc([N+](=O)[O-])cc2)c1=O` [compound 120], the response in data set [1] was half-maximal at 0.54 µM (EC50). Besides, in the data set on MT4 CMV-EGFP cells, the CC50 is greater than 100 µM.

`COc1cc2c(N)c(C#N)c(=O)n(-c3ccc([N+](=O)[O-])cc3)c2cc1OC` [compound 109] had an EC50 in data set [1] of 13.5 µM. The CC50 in the data set with MT4 CMV-EGFP cells is greater than 100 µM.

As to `N#Cc1cc2ccc(NCc3cccnc3)cc2n(-c2ccc([N+](=O)[O-])cc2)c1=O` [compound 23], the EC50 in data set [1] is greater than 32 µM. The CC50 in the data set with MT4 CMV-EGFP cells is greater than 32 µM.

In data set [1], `Cc1ccc(-n2c(=O)c(C#N)cc3ccc(-c4cscn4)cc32)cc1C#N` [compound 160] showed an EC50 of 0.33 µM. In other words, the sub-micromolar range.

The compound `N#Cc1cc2ccc(-c3ncco3)cc2n(-c2ccc([N+](=O)[O-])cc2)c1=O` [compound 79] returned an EC50 in data set [1] of 0.12 µM.
